# Laboratory results: patent US10328029B2, “Pharmaceutical composition” (Cycle Pharmaceuticals, priority 2014, dated 2019)
# “Also recorded” adds a separate entry of the source.
# How the values were obtained:
# Type in all cases: physicochemical
# [1] = API stability study of nitisinone under long-term and accelerated storage (HPLC)
# Experimental: Data provided by the stability testing programme was conducted with the substance under investigation stored in the actual packaging used for storage and distribution. This was to determine if the substance remained compliant with the ICH specification criteria when tested over the period of its shelf life plus one year.
# A sample of approximately 150 g of substance was used for the testing programme, with individual samples being approximately 7 g in size. The test was designed to simulate the product package, i.e. the sample was packed in a polythene bag, sealed and then placed inside another polythene bag liner. The sample was then held in a fibreboard cask with a fibreboard lid.
# The sample was stored in an incubator maintained at 25° C.±2° C./60%±5% relative humidity (RH), and 40° C.±2° C./75%±5% RH.
# After testing of an initial sample, a sample was tested at certain time intervals (Table 6), i.e. monthly (0 m, 1 m, 2 m, etc.).
# There was no decrease in purity and the cyclised impurity remained below the identification threshold (0.10%) throughout the stability testing (measured by HPLC).
# (§1) In the foregoing examples, the HPLC conditions were as follows: […]
# [2] = Excipient compatibility: nitisinone mixed with fillers/lubricants, stored at 40° C./75% RH, cyclised impurity by HPLC
# Experimental: In order to identify suitable excipients to develop a temperature stable formulation, 4 standard fillers and 5 lubricants were mixed with nitisinone and stored under accelerated conditions for 1 week and 3 weeks. 10 preparations for each excipient were prepared by weighing approximately 10 mg of nitisinone and 500 mg of the excipient into a glass vial and mixing together by gentle swirling. To 5 lots of preparations, 50 μl of water was added to wet the sample. For a control, 10 preparations of the drug substance were prepared by weighing approximately 10 mg nitisinone into a suitable glass vial and to 5 lots of preparations, 50 μl of water was added to wet the sample.
# HPLC analysis was used to quantify the relative amount of the cyclised impurity (RRT 0.7) for each formulation at each time point (Tables 7 and 8).
# as §1
# [3] = Process stability of nitisinone in acetone, in water and on drying (HPLC purity)
# Experimental: It is a requirement of GMP manufacturing that the final recrystallisation includes a filtration through a polishing filter to remove particulates, and so the GMP process would involve filtration of the hot acetone solution. This means that it is likely that the solution of Nitisinone in acetone at 45° C. could be held at elevated temperature for a prolonged period of time. The stability of stage 1 at 45° C. was tested over a 6 hour period to confirm that the Nitisinone would not degrade under these conditions (Table 4). […] Therefore, acetone could be used in the hot filtration step of the GMP process.
# On scale-up, drying from water can often take much longer than on lab scale and could potentially result in degradation of the product, especially with a product that could potentially be prone to hydrolysis. Following filtration of Nitisinone from the final recrystallisation, the filter-cake was washed with water to remove the residual mother liquors. Due to its high solubility in acetone and other organic solvents, a solvent wash was not appropriate as high yield losses would likely be incurred. A water wash also helped remove residual inorganics. Drying studies were therefore carried out to determine the stability of the recrystallised material and try to ensure that there would be no unexpected degradation during the drying phase of the scale-up manufacture (Table 5).
# Two separate batches were heated over a 60 hour period with purity and KF values taken (entries 1-10). […] A sample of Nitisinone was suspended in water and heated at 40° C. with no vacuum for 60 hours (entries 11-13), to simulate poor drying. […] A second sample was wetted each morning and dried under vacuum overnight to study the effect of repeatedly wetting and drying the sample (entries 14-19).
smiles,measurement,setting,value
"O=C1CCCC(=O)C1C(=O)c1ccc(C(F)(F)F)cc1[N+](=O)[O-] [Nitisinone, 2-[2-nitro-4-(trifluoromethyl)benzoyl] cyclohexane-1,3-dione]",API stability with respect to cyclised impurity (in words),"[1]; 25° C./60% RH and 40° C./75% RH, listed as API",no formation of the aforementioned cyclised impurity was observed; also recorded: no deviation from specification
same,Stability of API over time,"[1]; 25° C./60% RH, 0 m",99.90% w/w
same,Stability of API over time,"[1]; 25° C./60% RH, 1 m",99.87% w/w
same,Stability of API over time,"[1]; 25° C./60% RH, 2 m",99.88% w/w
same,Stability of API over time,"[1]; 25° C./60% RH, 3 m",99.91% w/w
same,Stability of API over time,"[1]; 25° C./60% RH, 6 m",99.91% w/w
same,Stability of API over time,"[1]; 40° C./75% RH, 0 m",99.90% w/w
same,Stability of API over time,"[1]; 40° C./75% RH, 1 m",99.89% w/w
same,Stability of API over time,"[1]; 40° C./75% RH, 2 m",99.88% w/w
same,Stability of API over time,"[1]; 40° C./75% RH, 3 m",99.92% w/w
same,Stability of API over time,"[1]; 40° C./75% RH, 6 m",99.96% w/w
same,Cyclised Impurity - RRT 0.7,"[2]; 1 week, Dry",0.02 norm %
same,Cyclised Impurity - RRT 0.7,"[2]; 1 week, Wet (50 μl water)",0.07 norm %
same,Cyclised Impurity - RRT 0.7,"[2]; 3 weeks, Dry",0.13 norm %
same,Cyclised Impurity - RRT 0.7,"[2]; 3 weeks, Wet (50 μl water)",0.20 norm %
same,Cyclised Impurity - RRT 0.7,"[2]; Initial, about 10 mg nitisinone + 500 mg excipient",0.01 norm %
same,"stability of stage 1 nitisinone in acetone (purity, in words)","[3]; acetone, 45° C., over a 6 hour period",No loss of purity was observed
same,"stability of Nitisinone in water (purity, in words)","[3]; suspended in water, heated at 40° C., no vacuum, 60 hours",No loss of purity was observed
same,"stability of recrystallised Nitisinone to extended drying (purity, in words)",[3]; two batches heated over a 60 hour period,little to no loss in purity
